Laboratory results taken from ChEMBL document CHEMBL5034004, “Discovery of M3 Antagonist-PDE4 Inhibitor Dual Pharmacology Molecules for the Treatment of Chronic Obstructive Pulmonary Disease” (J Med Chem, 2021).

Legend:
[1] = target: Muscarinic acetylcholine receptor M3 (Homo sapiens, UniProt P20309); experiment: Displacement of [3H]-N-methyl Scopolamine Chloride from human M3 receptor membranes incubated for 2 hrs by scintillation counting analysis; assay type: cell membranes, Cell membrane
[2] = Antagonist activity at muscarinic M3 receptor in guinea pig trachea assessed as inhibition of carbachol-induced contraction; assay type: tissue-based, Cavia porcellus
[3] = target: 3',5'-cyclic-AMP phosphodiesterase 4B (Homo sapiens, UniProt Q07343); experiment: Inhibition of human recombinant PDE4B2 assessed as […] in cAMP level incubated for 2 hrs by LANCE Ultra cAMP TR-FRET assay
Sequence of 3',5'-cyclic-AMP phosphodiesterase 4B (Q07343 whole entry): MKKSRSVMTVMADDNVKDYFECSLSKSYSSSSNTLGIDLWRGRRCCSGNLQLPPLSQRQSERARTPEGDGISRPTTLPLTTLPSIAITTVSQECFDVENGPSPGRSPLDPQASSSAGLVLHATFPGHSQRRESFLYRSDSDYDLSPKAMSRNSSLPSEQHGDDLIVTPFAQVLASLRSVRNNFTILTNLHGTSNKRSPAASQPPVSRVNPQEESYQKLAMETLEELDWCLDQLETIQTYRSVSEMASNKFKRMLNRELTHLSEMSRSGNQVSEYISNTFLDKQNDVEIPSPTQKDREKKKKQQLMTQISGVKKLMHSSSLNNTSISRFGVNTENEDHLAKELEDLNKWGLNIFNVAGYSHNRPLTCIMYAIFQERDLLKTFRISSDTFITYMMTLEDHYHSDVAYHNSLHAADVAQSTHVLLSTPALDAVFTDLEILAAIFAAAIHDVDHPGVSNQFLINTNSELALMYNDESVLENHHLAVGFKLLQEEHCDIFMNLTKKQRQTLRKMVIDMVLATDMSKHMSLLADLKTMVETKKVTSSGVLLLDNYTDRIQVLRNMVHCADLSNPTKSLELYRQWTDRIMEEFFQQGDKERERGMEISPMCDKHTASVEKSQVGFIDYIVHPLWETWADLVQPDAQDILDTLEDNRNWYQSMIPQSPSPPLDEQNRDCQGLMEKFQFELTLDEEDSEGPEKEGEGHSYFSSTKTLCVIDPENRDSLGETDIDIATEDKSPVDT

[4] = Antiinflammatory activity in human PBMCs assessed as inhibition of LPS-induced TNF-alpha release measured after 18 hrs by ELISA; assay type: functional, tissue-based, PBMC; settings: for IC50: Homo sapiens, PBMC, 18 h; for pIC50: pbmc
[5] = target: 3',5'-cyclic phosphodiesterase; experiment: Inhibition of PDE4 in human U-937 cells assessed as […] in cAMP level by LANCE cAMP Assay; assay type: cell-based
[6] = target: Muscarinic acetylcholine receptor M3 (Rattus norvegicus, UniProt P08483); experiment: Antagonist activity at muscarinic M3 receptor in rat trachea assessed as inhibition of carbachol-induced contraction; assay type: functional, tissue-based
Sequence of Muscarinic acetylcholine receptor M3 (Rattus norvegicus, UniProt P08483) (P08483 whole entry): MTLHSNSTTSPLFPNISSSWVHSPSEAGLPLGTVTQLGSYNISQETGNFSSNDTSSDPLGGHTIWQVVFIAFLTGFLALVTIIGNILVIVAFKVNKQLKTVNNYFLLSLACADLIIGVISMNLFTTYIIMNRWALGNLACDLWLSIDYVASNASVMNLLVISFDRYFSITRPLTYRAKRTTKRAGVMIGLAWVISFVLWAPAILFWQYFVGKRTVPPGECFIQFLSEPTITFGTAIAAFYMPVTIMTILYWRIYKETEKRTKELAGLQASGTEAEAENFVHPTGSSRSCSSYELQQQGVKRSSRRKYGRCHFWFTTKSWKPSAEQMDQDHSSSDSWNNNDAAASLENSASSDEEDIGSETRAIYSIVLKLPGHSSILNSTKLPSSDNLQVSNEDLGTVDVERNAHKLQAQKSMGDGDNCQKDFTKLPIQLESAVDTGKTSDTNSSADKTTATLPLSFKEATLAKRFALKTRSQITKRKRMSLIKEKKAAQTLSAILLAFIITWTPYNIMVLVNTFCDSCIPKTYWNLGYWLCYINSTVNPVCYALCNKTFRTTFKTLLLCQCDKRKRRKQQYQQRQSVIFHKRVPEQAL

[7] = Kinetic solubility of compound in PBS at pH 7.4 […] incubated for 2 hrs by LC-UV and LC-MS analysis; assay type: physicochemical; settings: read-out: Kinetic_solubility

Sequence of Muscarinic acetylcholine receptor M3 (Homo sapiens, UniProt P20309) (P20309 whole entry): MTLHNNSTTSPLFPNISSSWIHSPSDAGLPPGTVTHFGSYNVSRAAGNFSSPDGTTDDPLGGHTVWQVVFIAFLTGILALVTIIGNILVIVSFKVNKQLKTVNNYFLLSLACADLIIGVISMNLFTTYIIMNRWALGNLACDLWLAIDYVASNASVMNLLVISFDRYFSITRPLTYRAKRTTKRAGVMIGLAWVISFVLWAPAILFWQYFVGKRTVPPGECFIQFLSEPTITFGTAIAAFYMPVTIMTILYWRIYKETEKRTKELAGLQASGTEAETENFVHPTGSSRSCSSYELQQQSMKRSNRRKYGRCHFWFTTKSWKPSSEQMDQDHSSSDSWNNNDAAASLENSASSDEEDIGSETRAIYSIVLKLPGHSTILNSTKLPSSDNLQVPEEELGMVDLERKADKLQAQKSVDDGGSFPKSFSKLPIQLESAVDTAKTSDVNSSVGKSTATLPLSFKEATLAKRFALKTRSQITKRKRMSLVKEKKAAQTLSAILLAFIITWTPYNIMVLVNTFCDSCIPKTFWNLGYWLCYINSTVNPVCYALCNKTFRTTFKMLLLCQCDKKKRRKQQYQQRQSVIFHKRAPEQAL

Compound	Ki [1] [nM]	pIC50 [2]	IC50 [3] [nM]	IC50 [4] [nM]	further results
COc1ccc([C@H](Cc2c(Cl)c[n+]([O-])cc2Cl)OC(=O)c2ccc(CN(C(=O)O[C@H]3CN4CCC3CC4)c3ccccc3)cc2F)cc1OC	0.158	8.6	2.51	0.126	–
O=C(O[C@@H](Cc1c(Cl)c[n+]([O-])cc1Cl)c1ccc(OC(F)F)c(OCC2CC2)c1)c1cccc(CN(C(=O)O[C@H]2CN3CCC2CC3)c2ccccc2)c1	1.26	6.5	–	–	pIC50 [5]: 9.9
COc1ccc([C@H](Cc2c(Cl)c[n+]([O-])cc2Cl)OC(=O)c2ccc(CN(C(=O)O[C@H]3CN4CCC3CC4)c3cccnc3)s2)cc1OC	7.94	–	–	–	–
COc1ccc([C@H](Cc2c(Cl)c[n+]([O-])cc2Cl)OC(=O)c2ccc(CNC(C(=O)OCC3CCN(C)CC3)c3ccccc3)s2)cc1OC (stereo in doubt; 92h)	–	–	–	–	pIC50 [4]: 8.8; IC50 [6]: 5.01 nM
COc1ccc([C@H](Cc2c(Cl)c[n+]([O-])cc2Cl)OC(=O)c2ccc(CNC(C(=O)OC[C@H]3CCN3C)c3ccccc3)s2)cc1OC (stereo in doubt; 91i)	–	–	–	–	pIC50 [4]: 8.1; IC50 [6]: 20 nM
COc1ccc([C@H](Cc2c(Cl)c[n+]([O-])cc2Cl)OC(=O)c2ccc(F)c(CN(C(=O)O[C@H]3CN4CCC3CC4)c3ccccc3)c2)cc1OC	0.2	9	7.94	2	–
COc1ccc([C@H](Cc2c(Cl)c[n+]([O-])cc2Cl)OC(=O)c2ccc(CNC(C(=O)O[C@H]3CN4CCC3CC4)c3ccccc3F)s2)cc1OC (stereo in doubt; 92b)	0.158	8.5	–	–	pIC50 [3]: 9.2; pIC50 [4]: 8.9
COc1ccc([C@H](Cc2c(Cl)c[n+]([O-])cc2Cl)OC(=O)c2cccc(NC(C(=O)O[C@H]3CN4CCC3CC4)c3ccccc3)c2)cc1OC (some centres not stated)	0.398	7.7	–	–	pIC50 [5]: 9.8
COc1ccc([C@H](Cc2c(Cl)c[n+]([O-])cc2Cl)OC(=O)Cc2ccc(CN(C(=O)O[C@H]3CN4CCC3CC4)c3ccccc3)cc2)cc1OC	0.316	–	10	–	–
COc1ccc([C@H](Cc2c(Cl)c[n+]([O-])cc2Cl)OC(=O)c2ccc(CNC(C(=O)O[C@@H]3CCN(C)C3)c3ccccc3)s2)cc1OC (stereo in doubt; 91f)	7.94	–	3.16	3.98	IC50 [6]: 1 nM
O=C(O[C@@H](Cc1c(Cl)c[n+]([O-])cc1Cl)c1ccc(OC(F)F)c(OCC2CC2)c1)c1cccc(S(=O)(=O)NC(C(=O)O[C@H]2CN3CCC2CC3)c2ccccc2)c1 (some centres not stated)	1.26	7.3	–	–	pIC50 [5]: 10
O=C(O[C@@H](Cc1c(Cl)c[n+]([O-])cc1Cl)c1ccc(OC(F)F)c(OCC2CC2)c1)c1cccc(NC(C(=O)O[C@H]2CN3CCC2CC3)c2ccccc2)c1 (some centres not stated)	0.794	< 6	–	–	pIC50 [5]: 9
COc1ccc([C@H](Cc2c(Cl)c[n+]([O-])cc2Cl)OC(=O)c2cccc(CNC(C(=O)O[C@H]3CN4CCC3CC4)c3ccccc3)c2)cc1OC (stereo in doubt; 89)	0.158	9	3.98	1.26	–
CCOc1cc([C@H](Cc2c(Cl)c[n+]([O-])cc2Cl)OC(=O)c2ccc(CN(C(=O)O[C@H]3CN4CCC3CC4)c3ccccc3F)s2)ccc1OC(F)F	0.316	8.3	–	–	solubility kinetic at 2 h [7]: < 5 µM
COc1ccc([C@H](Cc2c(Cl)c[n+]([O-])cc2Cl)OC(=O)c2ccc(CNC(C(=O)OCC3CCN(C)CC3)c3ccccc3)s2)cc1OC (stereo in doubt; 91h)	–	–	–	–	pIC50 [4]: 8.4
O=C(O[C@@H](Cc1c(Cl)c[n+]([O-])cc1Cl)c1ccc(OC(F)F)c(OCC2CC2)c1)c1cccc(CNC(C(=O)O[C@H]2CN3CCC2CC3)c2ccccc2)c1 (some centres not stated)	0.631	7.6	–	–	pIC50 [5]: 9.5
COc1ccc([C@H](Cc2c(Cl)c[n+]([O-])cc2Cl)OC(=O)c2ccc(CNC(C(=O)OCCN(C)C)c3ccccc3)s2)cc1OC (stereo in doubt; 92j)	0.398	–	0.631	–	IC50 [6]: 12.6 nM
COc1ccc([C@H](Cc2c(Cl)c[n+]([O-])cc2Cl)OC(=O)c2ccc(CNC(C(=O)OC3C[C@H]4CC[C@H](C3)N4C)c3ccccc3)s2)cc1OC (stereo in doubt; 91d)	0.501	–	1	2.51	IC50 [6]: 10 nM
COc1ccc([C@H](Cc2c(Cl)c[n+]([O-])cc2Cl)OC(=O)c2ccc(CNC(C(=O)OC[C@H]3CCN3C)c3ccccc3)s2)cc1OC (stereo in doubt; 92i)	–	–	–	–	IC50 [6]: 5.01 nM
COc1ccc([C@H](Cc2c(Cl)c[n+]([O-])cc2Cl)OC(=O)c2ccc(CN(C)C(C(=O)O[C@H]3CN4CCC3CC4)c3ccccc3)s2)cc1OC (stereo in doubt; 92c)	–	–	3.16	–	pKi [1]: 9.2; pIC50 [4]: 8.7

Compound	Ki [1] [nM]	pIC50 [2]	IC50 [3] [nM]	IC50 [4] [nM]	further results
COc1ccc([C@H](Cc2c(Cl)c[n+]([O-])cc2Cl)OC(=O)c2ccc(CNC(C(=O)O[C@H]3CN4CCC3CC4)c3ccccc3F)s2)cc1OC (stereo in doubt; 91b)	0.1	8.6	0.631	1	–
COc1ccc([C@H](Cc2c(Cl)c[n+]([O-])cc2Cl)OC(=O)c2cccc(S(=O)(=O)NC(C(=O)O[C@H]3CN4CCC3CC4)c3ccccc3)c2)cc1OC (some centres not stated)	0.631	8.2	–	–	pIC50 [5]: 9.6
COc1ccc([C@H](Cc2c(Cl)c[n+]([O-])cc2Cl)OC(=O)c2ccc(CN(C(=O)O[C@H]3CN4CCC3CC4)c3cccc(O)c3)s2)cc1OC	0.316	9	0.794	0.398	–
COc1ccc([C@H](Cc2c(Cl)c[n+]([O-])cc2Cl)OC(=O)c2ccc(CNC(C(=O)OCCN(C)C)c3ccccc3)s2)cc1OC (stereo in doubt; 91j)	12.6	–	1	3.16	IC50 [6]: 79.4 nM
O=C(O[C@@H](Cc1c(Cl)c[n+]([O-])cc1Cl)c1ccc(OC(F)F)c(OCC2CC2)c1)c1ccc(CN(C(=O)O[C@H]2CN3CCC2CC3)c2ccccc2F)s1	0.2	8.2	–	–	solubility kinetic at 2 h [7]: < 5 µM
COc1ccc([C@H](Cc2c(Cl)c[n+]([O-])cc2Cl)OC(=O)c2ccc(CN(C(=O)O[C@H]3CN4CCC3CC4)c3cccc(F)c3)s2)cc1OC	0.2	8.1	1	0.631	–
COc1ccc([C@H](Cc2c(Cl)c[n+]([O-])cc2Cl)OC(=O)c2ccc(CNC(C(=O)OC3C[C@H]4CC[C@H](C3)N4C)c3ccccc3)s2)cc1OC (stereo in doubt; 92d)	10	–	–	–	pIC50 [3]: 9
COc1ccc([C@H](Cc2c(Cl)c[n+]([O-])cc2Cl)OC(=O)c2ccc(CN(C(=O)O[C@H]3CN4CCC3CC4)c3cccc(C(F)F)c3)s2)cc1OC	3.16	8.8	0.316	0.2	–
COc1ccc([C@H](Cc2c(Cl)c[n+]([O-])cc2Cl)OC(=O)c2ccc(CNC(C(=O)OC[C@H]3CN4CCC3CC4)c3ccccc3)s2)cc1OC (stereo in doubt; 91g)	–	–	–	3.16	IC50 [6]: 20 nM
COc1ccc([C@H](Cc2c(Cl)c[n+]([O-])cc2Cl)OC(=O)c2ccc(CN(C)C(C(=O)O[C@H]3CN4CCC3CC4)c3ccccc3)s2)cc1OC (stereo in doubt; 91c)	0.631	–	2	3.16	–
CC(C)Oc1cc([C@H](Cc2c(Cl)c[n+]([O-])cc2Cl)OC(=O)c2ccc(CN(C(=O)O[C@H]3CN4CCC3CC4)c3ccccc3F)s2)ccc1OC(F)F	0.316	7.5	–	–	solubility kinetic at 2 h [7]: < 5 µM
COc1ccc([C@H](Cc2c(Cl)c[n+]([O-])cc2Cl)OC(=O)c2cccc(CNC(C(=O)O[C@H]3CN4CCC3CC4)c3ccccc3)c2)cc1OC (stereo in doubt; 90)	0.2	9.1	7.94	–	pIC50 [4]: 8.6
COc1ccc([C@H](Cc2c(Cl)c[n+]([O-])cc2Cl)OC(=O)c2ccc(CNC(C(=O)OC[C@H]3CN4CCC3CC4)c3ccccc3)s2)cc1OC (stereo in doubt; 92g)	–	–	–	–	pIC50 [4]: 8.4; IC50 [6]: 3.16 nM
COc1ccc([C@H](Cc2c(Cl)c[n+]([O-])cc2Cl)OC(=O)c2ccc(CNC(C(=O)OC3CCN(C)CC3)c3ccccc3)s2)cc1OC (stereo in doubt; 91e)	10	–	1	1.58	IC50 [6]: 20 nM
COc1ccc([C@H](Cc2c(Cl)c[n+]([O-])cc2Cl)OC(=O)c2cccc(CNC(C(=O)O[C@H]3CN4CCC3CC4)c3ccccc3)c2)cc1OC (stereo in doubt; 86a)	0.398	8.2	–	–	pIC50 [5]: 9.5
COc1ccc([C@H](Cc2c(Cl)c[n+]([O-])cc2Cl)OC(=O)c2cccc(CN(C(=O)O[C@H]3CN4CCC3CC4)c3ccccc3)c2)cc1OC	0.316	9.2	6.31	5.01	pIC50 [5]: 9
COc1ccc([C@H](Cc2c(Cl)c[n+]([O-])cc2Cl)OC(=O)c2ccc(CN(C(=O)O[C@H]3CN4CCC3CC4)c3nccs3)s2)cc1OC	0.794	8.4	0.631	0.501	–
COc1ccc([C@H](Cc2c(Cl)c[n+]([O-])cc2Cl)OC(=O)c2ccc(CN(C(=O)O[C@H]3CN4CCC3CC4)c3ccccc3)cc2)cc1OC	0.158	8.7	2	2.51	–
COc1cc([C@H](Cc2c(Cl)c[n+]([O-])cc2Cl)OC(=O)c2ccc(CN(C(=O)O[C@H]3CN4CCC3CC4)c3ccccc3F)s2)ccc1OC(F)F	0.251	8.2	–	–	solubility kinetic at 2 h [7]: < 5 µM
